Assays:
[1] = test system: H358 cells; assay: Inhibition of H358 cell proliferation (CellTiter-Glo 3D, 7 days); type: cell-based; conditions: Homo sapiens, 168 h, NCI-H358, 7 days, read-out: IC50 (nM), inhibitory activity on H358 cell proliferation
Method: • (a) The cells were thawed in T75 cell culture flasks:
• (b) When 80-90% cell confluence was achieved, the cells were passaged.
The diluted test compounds were added to a 384-well cell culture plate using a nanoliter pipetting system, and duplicate wells were set. An equal volume of medium was added to the positive control group; an equal volume of DMSO was added to the negative control group. The plate was centrifuged at 1000 rpm at room temperature for 1 min.
The cells were inoculated into a) 384-well culture plate, an equal volume of cells was added to the negative control group, and only an equal volume of medium was added to the positive control group. The plate was centrifuged at 1000 rpm at room temperature for 1 min. The final concentration of DMSO in the final compounds was 0.5%. The plate was incubated in a thermostatic incubator at 37° C. with 5% CO2 for 7 days.
CellTiter-Glo® 3D was added to b) 384-well cell culture plate at 20 μL/well. The plate was shaken at 320 rpm in the dark for 20 min, and incubated at room temperature in the dark for 2 h. The luminescence values were read using an Envision multi-mode microplate reader.
The inhibition rates of the compounds at different concentrations were calculated in Excel, and then inhibition curves were plotted and relevant parameters including minimum inhibition rate, maximum inhibition rate and IC50 were calculated using GraphPad Prism software.

[2] = biological target: T1, binding of KRAS^G12C to SOS1 (Homo sapiens, UniProt Q07889); assay: Inhibition of the binding of KRAS^G12C to SOS1; conditions: Tag1-SOS1 / Tag2-KRAS^G12C, 2 h incubation at room temperature; read-out: IC50 (nM), inhibitory activity on the binding of KRAS^G12C to SOS1
T1 construct: Tag1 (unspecified)
T1 sequence (Q07889 1-1333): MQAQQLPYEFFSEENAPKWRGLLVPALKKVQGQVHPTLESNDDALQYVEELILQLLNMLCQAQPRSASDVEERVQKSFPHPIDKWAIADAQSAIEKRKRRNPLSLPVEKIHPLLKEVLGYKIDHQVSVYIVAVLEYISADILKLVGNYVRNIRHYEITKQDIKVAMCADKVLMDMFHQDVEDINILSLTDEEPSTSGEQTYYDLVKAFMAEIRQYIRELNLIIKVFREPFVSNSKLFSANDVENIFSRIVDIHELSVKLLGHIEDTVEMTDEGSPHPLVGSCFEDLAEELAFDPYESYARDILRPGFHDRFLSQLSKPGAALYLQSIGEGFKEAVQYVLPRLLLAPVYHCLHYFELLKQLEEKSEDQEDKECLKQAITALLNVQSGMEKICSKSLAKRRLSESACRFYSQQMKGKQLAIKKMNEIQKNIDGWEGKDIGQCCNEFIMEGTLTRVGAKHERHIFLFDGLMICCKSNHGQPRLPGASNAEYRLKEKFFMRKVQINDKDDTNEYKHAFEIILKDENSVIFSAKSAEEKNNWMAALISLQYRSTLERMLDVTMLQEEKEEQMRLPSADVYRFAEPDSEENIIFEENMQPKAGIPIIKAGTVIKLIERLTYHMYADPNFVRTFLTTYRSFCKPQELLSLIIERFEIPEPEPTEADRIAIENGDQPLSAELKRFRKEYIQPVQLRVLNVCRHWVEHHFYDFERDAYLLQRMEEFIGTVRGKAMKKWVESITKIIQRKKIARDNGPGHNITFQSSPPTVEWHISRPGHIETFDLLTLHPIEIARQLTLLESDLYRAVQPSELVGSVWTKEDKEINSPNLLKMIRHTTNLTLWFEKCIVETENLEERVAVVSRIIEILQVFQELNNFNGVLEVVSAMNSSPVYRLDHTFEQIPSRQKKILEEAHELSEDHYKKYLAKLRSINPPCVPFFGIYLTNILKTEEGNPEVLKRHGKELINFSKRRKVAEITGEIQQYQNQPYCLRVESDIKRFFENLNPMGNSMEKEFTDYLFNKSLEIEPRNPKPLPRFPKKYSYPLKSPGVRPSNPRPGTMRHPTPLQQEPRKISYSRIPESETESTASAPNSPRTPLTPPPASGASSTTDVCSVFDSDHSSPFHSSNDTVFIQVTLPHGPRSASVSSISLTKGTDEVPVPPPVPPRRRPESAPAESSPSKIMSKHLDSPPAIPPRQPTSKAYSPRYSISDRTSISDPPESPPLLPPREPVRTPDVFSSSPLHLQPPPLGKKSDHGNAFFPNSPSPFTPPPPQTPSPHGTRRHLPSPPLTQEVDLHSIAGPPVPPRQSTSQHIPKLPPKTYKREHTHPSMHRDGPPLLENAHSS
Outline: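 Tag1-SOS1 and Tag2-KRAS^G12C mixed with serially diluted compound (final 0.25% DMSO), then anti-Tag1-Tb3+ and anti-Tag2-XL665 added for 2 h at room temperature. IC50 from curve fit of the TR-FRET signal.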

[3] = test system: MIA PaCa-2 tumor cells; assay: Anti-tumor pharmacodynamic evaluation, MIA PaCa-2 subcutaneous xenograft; type: in vivo; conditions: MIA PaCa-2 in nude mice
Method: 100 μL of a suspension containing 5×10^6 MIA PaCa-2 tumor cells was subcutaneously inoculated into the right posterior abdomens of nude mice. The health of the mice was monitored daily, and measurements were started when tumors grew to be palpable. The tumor volume was calculated as follows: 0.5×L×W^2, where L and W represent the length and width of the tumor, respectively. When the tumors grew to about 100 mm^3, the mice were randomized into groups. The mice were intragastrically administered a corresponding dose (50 mg/kg) of compound suspension in CMC-Na twice daily, and their general states were monitored at the same time. The tumors were measured 3 times a week, and the body weight was measured twice a week.

[4] = Day 21, 50 mg/kg intragastric twice daily

Row | Structure (SMILES) | IC50 [1] | IC50 [2] | TV (mm^3) (tumor volume) Day 0 ([3]; Day 0 (at grouping), 50 mg/kg intragastric twice daily) | % TGI (tumor growth inhibition) [3, 4] | TV (mm^3) (tumor volume) Day 21 [3, 4]
1 | COc1cc2nc(C)nc(N[C@H](C)c3cc(N)cc(C(F)(F)F)c3)c2cc1OCCOC1COC1 [Example 44, (R)—N-(1-(3-Amino-5-(trifluoromethyl)phenyl)ethyl)-7-methoxy-2-methyl-6-(2-(oxetan-3-yloxy)ethoxy)quinazolin-4-amine] | 25 nM | 4.4 nM | – | – | –
2 | COCCOc1cc2c(N[C@H](C)c3cccc(C(F)(F)C(C)(C)O)c3F)nc(C)nc2cc1OC [Example 72, (R)-1,1-Difluoro-1-(2-fluoro-3-(1-((7-methoxy-6-(2-methoxyethoxy)-2-methylquinazolin-4-yl)amino)ethyl)phenyl)-2-methylpropan-2-ol] | 16.6 nM | 3.2 nM | 103 mm^3 | 84.9% | 175 mm^3
3 | COCCOc1cc2c(N[C@H](C)c3cc(N)cc(C(F)(F)C(C)(C)O)c3)nc(C)nc2cc1OC [Example 74] | 6.5 nM | 3.1 nM | – | – | –
4 | COCCOc1cc2c(N[C@H](C)c3cc(C(F)(F)C(C)(C)O)ccc3F)nc(C)nc2cc1OC [Example 79, (R)-1,1-Difluoro-1-(4-fluoro-3-(1-((7-methoxy-6-(2-methoxyethoxy)-2-methylquinazolin-4-yl)amino)ethyl)phenyl)-2-methylpropan-2-ol] | 419 nM | 19 nM | – | – | –
5 | COCCOc1cc2c(N[C@H](C)c3cc(F)cc(C(F)(F)C(C)(C)O)c3)nc(C)nc2cc1OC [Example 80, (R)-1,1-Difluoro-1-(3-fluoro-5-(1-((7-methoxy-6-(2-methoxyethoxy)-2-methylquinazolin-4-yl)amino)ethyl)phenyl)-2-methylpropan-2-ol] | 53 nM | 6.2 nM | – | – | –
6 | COc1cc2nc(C)nc(N[C@H](C)c3cc(N)cc(C(F)(F)F)c3)c2cc1OCCOC1CC1(F)F (stereo partly drawn) [Example 82, N—((R)-1-(3-Amino-5-(trifluoromethyl)phenyl)ethyl)-6-(2-(2,2-difluorocyclopropyloxy)ethoxy)-7-methoxy-2-methylquinazolin-4-amine] | 33 nM | 4.5 nM | – | – | –
7 | COCCOc1cc2c(N[C@H](C)c3cc(N)cc(OC(F)(F)F)c3)nc(C)nc2cc1OC [Example 83, (R)—N-(1-(3-Amino-5-(trifluoromethoxy)phenyl)ethyl)-7-methoxy-6-(2-methoxyethoxy)-2-methylquinazolin-4-amine] | 187 nM | 15 nM | – | – | –
8 | COCCOc1cc2c(N[C@H](C)c3cccc(C(F)(F)CO)c3)nc(C)nc2cc1OC [Example 85] | 39 nM | 4.1 nM | – | – | –
9 | COCCOc1cc2nc(C)nc(N[C@H](C)c3cccc(C(F)(F)C(C)(C)O)c3F)c2cc1OCCOC [Example 86, (R)-1-(3-(1-((6,7-Bis(2-methoxyethoxy)-2-methylquinazolin-4-yl)amino)ethyl)-2-fluorophenyl)-1,1-difluoro-2-methylpropan-2-ol] | 11.8 nM | 4.4 nM | – | – | –
10 | COCCOc1cc2c(N[C@H](C)c3cccc(C(F)(F)C(C)(C)O)c3F)nc(C)nc2cc1C#N [Example 89, (R)-4-((1-(3-(1,1-Difluoro-2-hydroxy-2-methylpropyl)-2-fluorophenyl)ethyl)amino)-6-(2-methoxyethoxy)-2-methylquinazoline-7-carbonitrile] | 130 nM | 6.7 nM | – | – | –

The next lines start with results.

Row | IC50 [1] | IC50 [2] | Structure (SMILES) | TV (mm^3) (tumor volume) Day 0 ([3]; Day 0 (at grouping), 50 mg/kg intragastric twice daily) | % TGI (tumor growth inhibition) [3, 4] | TV (mm^3) (tumor volume) Day 21 [3, 4]
11 | 15.6 nM | – | COCC(COC)Oc1cc2c(N[C@H](C)c3cc(N)cc(C(F)(F)C(C)(C)O)c3)nc(C)nc2cc1OC [Example 122] | – | – | –
12 | 32.8 nM | – | COCCOc1cc2c(N[C@H](C)c3cc(N)cc(C(F)(F)C(C)(C)O)c3)nc(C)nc2cc1-c1cc[nH]n1 [Example 123, (R)-1-(3-Amino-5-(1-((6-(2-methoxyethoxy)-2-methyl-7-(1H-pyrazolyl-3-yl)quinazolin-4-yl)amino)ethyl)phenyl)-1,1-difluoro-2-methylpropan-2-ol] | – | – | –
13 | 34.7 nM | – | C#Cc1cc2nc(C)nc(N[C@H](C)c3cccc(C(F)(F)C(C)(C)O)c3F)c2cc1OCCOC [Example 153, (R)-1-(3-(1-(7-ethynyl-6-(2-methoxyethoxy)-2-methylquinazoline-4-amino)ethyl)-2-fluorophenyl)-1,1-difluoro-2-methylpropan-2-ol] | – | – | –
14 | 15.8 nM | – | C#Cc1cc2nc(C)nc(N[C@H](C)c3cccc(C(F)(F)C(C)(C)O)c3F)c2cc1OCCOC1COC1 [Example 157, (R)-1-(3-(1-((7-Ethynyl-2-methyl-6-(2-(oxetan-3-yloxy)ethoxy)quinazolin-4-yl)amino)ethyl)-2-fluorophenyl)-1,1-difluoro-2-methylpropan-2-ol] | – | – | –
15 | 14.5 nM | – | C#Cc1cc2nc(C)nc(N[C@H](C)c3cc(N)cc(C(F)(F)C(C)(C)O)c3)c2cc1OCCOC [Example 163, (R)-1-(3-Amino-5-(1-((7-ethynyl-6-(2-methoxyethoxy)-2-methylquinazolin-4-yl)amino)ethyl)phenyl)-1,1-difluoro-2-methylpropan-2-ol] | – | – | –

Source: patent US20240336606A1 (Suzhou Zelgen Biopharmaceuticals Co., Ltd., priority 2020, published 2024)
